Laboratory results published in JP2006306850A, “置換ベンズアニリド化合物及び有害生物防除剤” (priority 2005, dated 2006).
Read-outs that look alike come from different tables or passages of the source.

What was measured:
Format in all cases: in vivo
Details in all cases: 144 h, read-out: mortality rate
[1] = tested on: diamondback moth [コナガ(Plutella xylostella)]; experiment: 試験例1 コナガに対する殺虫試験 (insecticidal test, 2nd instar larvae)
[2] = tested on: common cutworm [ハスモンヨトウ(Spodoptera litura)]; experiment: 試験例2 ハスモンヨトウに対する殺虫試験 (insecticidal test, 2nd instar larvae)
[3] = tested on: cucurbit leaf beetle [ウリハムシ(Aulacophora femoralis)]; experiment: 試験例4 ウリハムシに対する殺虫試験 (insecticidal test, 2nd instar larvae)
[4] = tested on: oriental tea tortrix [チャハマキ(Homona magnanima)]; experiment: 試験例3 チャハマキに対する殺虫試験 (insecticidal test, 2nd instar larvae)
[5] = 100 ppm, leaf dip, 2nd instar, 6 days, 25℃

| Compound | mortality at 100 ppm [1] [%] | mortality at 100 ppm [2] [%] | mortality at 500 ppm [3] [%] | mortality at 100 ppm [1, 5] [%] | mortality at 100 ppm [2, 5] [%] | mortality at 100 ppm [4, 5] [%] | mortality at 500 ppm ([3]; 500 ppm, leaf dip, 2nd instar, 6 days, 25℃) [%] | mortality at 100 ppm [4] [%] |
| --- | --- | --- | --- | --- | --- | --- | --- | --- |
| Cc1cc(C(O)(COc2ccc(Cl)cc2)C(F)(F)F)ccc1NC(=O)c1cccc(I)c1C(=O)NC(C)C (centres unmarked) [2-004] | 100 | ≥ 80 | 100 | – | – | – | – | – |
| Cc1cc(C(O)(c2ccc(OC(F)(F)Br)cc2)C(F)(F)F)ccc1NC(=O)c1cccc(I)c1C(=O)NC(C)C (centres unmarked) [1-010] | – | – | – | 100 | ≥ 80 | ≥ 80 | 100 | – |
| Cc1cc2c(cc1NC(=O)c1cccc(I)c1C(=O)NC(C)C)OC(F)(F)C2(O)C(F)(F)F (centres unmarked) [4-002] | 100 | ≥ 80 | 100 | – | – | – | – | ≥ 80 |
| Cc1cc(C(O)(c2ccc(OC(F)(F)F)cc2)C(F)(F)F)ccc1NC(=O)c1cccc(I)c1C(=O)NC(C)C (centres unmarked) [1-009] | 100 | ≥ 80 | 100 | – | – | – | – | ≥ 80 |
| Cc1cc(C(O)(c2ccc3c(c2)OC(F)(F)C(F)(F)O3)C(F)(F)F)ccc1NC(=O)c1cccc(I)c1C(=O)NC(C)C (centres unmarked) [1-028] | 100 | ≥ 80 | 100 | – | – | – | – | ≥ 80 |
| COC(c1ccc(Cl)cc1)(c1ccc(NC(=O)c2cccc(I)c2C(=O)NC(C)C)c(C)c1)C(F)(F)F (centres unmarked) [3-002] | 100 | ≥ 80 | – | – | – | – | – | ≥ 80 |
| Cc1cc(C(O)(C=Cc2ccc(Cl)cc2)C(F)(F)F)ccc1NC(=O)c1cccc(I)c1C(=O)NC(C)C (centres unmarked) [2-018] | 100 | ≥ 80 | 100 | – | – | – | – | ≥ 80 |
| Cc1cc(C(C)(O)c2ccc(C(F)(F)F)cn2)ccc1NC(=O)c1cccc(I)c1C(=O)NC(C)C (centres unmarked) [2-001] | 100 | ≥ 80 | 100 | – | – | – | – | – |
| Cc1cc(C(O)(c2ccc(OS(C)(=O)=O)cc2)C(F)(F)F)ccc1NC(=O)c1cccc(I)c1C(=O)NC(C)C (centres unmarked) [1-015] | 100 | ≥ 80 | – | – | – | – | – | – |
| Cc1cc(C(O)(C(F)(F)F)C(F)(F)Oc2ccc(Cl)cc2)ccc1NC(=O)c1cccc(I)c1C(=O)NC(C)C (centres unmarked) [2-008] | 100 | ≥ 80 | 100 | – | – | – | – | ≥ 80 |
